Data taken from patent US6900194B1, “Use of substituted 4-biarylbutyric and 5-biarylpentanoic acid derivatives as matrix metalloprotease inhibitors for the treatment of respiratory diseases” (Bayer Aktiengesellschaft, priority 1998, dated 2005).

Tests used:
Rat MMP-13 = biological target: T1, Rat MMP-13 (Rattus norvegicus, UniProt P23097); assay: P218 quenched fluorescence assay, MMP-13 (rat); assay type: biochemical; settings: read-out: IC50 vs. MMP-13 (value marked *)
T1 construct: Rat pro-MMP-13 was obtained according to the protocol of Roswit, Arch; Biochem. Biophys
From the text: (§1) P218 Quenched Fluorescence Assay for MMP Inhibition:
(§2) This assay is adapted from the one described by Knight et al., FEBS Letters, 296, 263-266 (1992) for MMP-3 and a related substrate. The rate of hydrolysis of the synthetic substrate H-MCA-Pro-Lys-Pro-Leu-Ala-Leu-DPA-Ala-Arg-NH2 (P218) by the respective MMPs is monitored fluorometrically, using an excitation wavelength of 340 nm and an emission wavelength of 395 nm, in the presence or absence of the test compounds. The substrate is made up initially in 100% DMSO to a concentration of 1×10^−2 M, then diluted in assay buffer to a final concentration of 20 μM. […] The total assay volume in a 96 well microtitre plate is 150 μl, Cleavage of the substrate between the Leu-Ala residues allows the fluorescence of the MCA group to be detected on a fluorometer (Cytofluor II) following excitation at 340 nm and emission at 395 nm. Change in fluorescence is continually monitored for a 40 min period.
(§3) The Ki's are calculated using the method described by Williams and Morrison, Methods in Enzymology, 63, 437-467 (1979) to measure Ki apparent for tight binding inhibitors, and is summarised as follows: [I]0/(1−vi/v0)=Ki apparent ×vi/v0+[E]0 [I]0 and [E]0 are inhibitor and enzyme concentrations, and vi/v0 are reaction velocities with/without inhibitor. […]
(§4) IC50's are determined at each enzyme concentration using Xlfit software. […]

[1] = biological target: T2, MMP-8 (Neutrophil Collagenase) (Homo sapiens, UniProt P22894); assay: P218 quenched fluorescence assay, MMP-8; assay type: biochemical
T2 construct: Active recombinant truncated form (met^80-gly^242) was obtained according to the protocol of Knauper; made in house
T2 sequence (P22894 100-262): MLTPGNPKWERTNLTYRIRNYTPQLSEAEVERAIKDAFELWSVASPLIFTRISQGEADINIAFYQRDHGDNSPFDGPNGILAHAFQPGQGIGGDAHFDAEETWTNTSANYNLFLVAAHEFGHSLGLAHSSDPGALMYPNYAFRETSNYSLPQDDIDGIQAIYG
From the text: as §1, §2, §3, §4

[2] = biological target: T3, MMP-12 (Macrophage Elastase) (Homo sapiens, UniProt P39900); assay: P218 quenched fluorescence assay, MMP-12; assay type: biochemical; settings: human; read-out: Potency Ki vs. MMP-12
T3 construct: made in house; host or cells: E. coli BL21 (DE3)
T3 sequence (P39900 106-470): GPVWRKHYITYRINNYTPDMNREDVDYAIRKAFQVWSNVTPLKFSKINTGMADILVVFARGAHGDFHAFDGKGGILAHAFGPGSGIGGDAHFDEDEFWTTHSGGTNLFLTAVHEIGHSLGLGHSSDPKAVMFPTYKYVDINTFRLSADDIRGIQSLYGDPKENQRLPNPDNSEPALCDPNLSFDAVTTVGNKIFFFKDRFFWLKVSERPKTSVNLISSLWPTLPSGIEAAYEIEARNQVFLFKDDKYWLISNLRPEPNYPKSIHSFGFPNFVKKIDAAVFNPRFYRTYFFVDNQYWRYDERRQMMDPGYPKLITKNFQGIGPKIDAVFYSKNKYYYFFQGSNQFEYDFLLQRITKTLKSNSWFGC
From the text: as §1
This assay is adapted from the one described by Knight et al., FEBS Letters, 296, 263-266 (1992) for MMP-3 and a related substrate. The rate of hydrolysis of the synthetic substrate H-MCA-Pro-Lys-Pro-Leu-Ala-Leu-DPA-Ala-Arg-NH2 (P218) by the respective MMPs is monitored fluorometrically, using an excitation wavelength of 340 nm and an emission wavelength of 395 nm, in the presence or absence of the test compounds. The substrate is made up initially in 100% DMSO to a concentration of 1×10^−2 M, then diluted in assay buffer to a final concentration of 20 μM. Test compounds (10 mM in DMSO) are diluted in assay buffer at an initial concentration of 0.3-1000 nM. These are diluted to a final concentration in the assay from 0.03 nM to 100 nM. The reaction is initiated by the addition of substrate at a final concentration of 20 μM. The total assay volume in a 96 well microtitre plate is 150 μl, Cleavage of the substrate between the Leu-Ala residues allows the fluorescence of the MCA group to be detected on a fluorometer (Cytofluor II) following excitation at 340 nm and emission at 395 nm. Change in fluorescence is continually monitored for a 40 min period.
The Ki's are calculated using the method described by Williams and Morrison, Methods in Enzymology, 63, 437-467 (1979) to measure Ki apparent for tight binding inhibitors, and is summarised as follows: [I]0/(1−vi/v0)=Ki apparent ×vi/v0+[E]0 [I]0 and [E]0 are inhibitor and enzyme concentrations, and vi/v0 are reaction velocities with/without inhibitor. [I]0 is equal to IC50 when vi is half v0, so that: IC50=0.5×[E]0+Ki apparent
IC50's are determined at each enzyme concentration using Xlfit software. Ki apparent is then determined graphically from the plot of IC50 versus MMP concentration, using the intercepts to estimate Ki apparent. Thus, intercept values at IC50=0 and [E]0=0 are equal to −2×Ki apparent and Ki apparent, respectively. IC50 values are calculated using % inhibition values at each enzyme concentration, ensuring data is taken from the linear part of the reaction rate curves. The Ki can then be calculated from the equation: Ki=Ki apparent/[…] where S=substrate concentration and Km=dissociation constant.
The assay conditions are modified as follows for each of the MMPs used:
MMP-12 (Macrophage Elastase)
[…] is isolated according to the following procedure: Human GenePool cDNA libraries from human lung, spleen, and brain were obtained from Invitrogen (Groningen, The Netherlands). HPLC-purified oligonucleotides were purchased from BioTez (Berlin, Germany), E. coli strain DH5α from Life Technologies (Heidelberg, Germany), strain BL21(DE3) from Novagen (Heidelberg, Germany). Pfu DNA-Polymerase and pBlueScriptII-KS(+) were from Stratagene (Heidelberg, Germany). DNA plasmid and DANN gel isolation kits were purchased from Qiagen (Hilden, Germany). All restriction enzymes and DNA modifying enzymes were ordered from New England Biolabs (Schwalbach, Germany). HiTrapQ (5 ml) was from Pharmacia Biotech (Freiburg, Germany). Vydac C4-RP HPLC columns (214TP54: 300 Å, 5 μm, 4.6×250 mm; 214TP1022: 300 Å, 10 μm, 22×250 mm) were from Promochem (Wesel, Germany). Fluorogenic substrate P218 was purchased from Polypeptide Laboratories (Wolfenbüttel, Germany). Ultrapure urea was purchased from Schwarz-Mann (Cleveland, Ohio). Ready-to-use NuPAGE 10% Bis-Tris Polyacrylamide SDS-PAGE gels and NuPAGE 20×MOPS running buffer were obtained from Novex (Frankfurt/Main, Germany) 10% AMPA and all other chemicals were from Sigma (Deisenhofen, Germany). […]

MMP-7 (Matrilysin) = biological target: T4, MMP-7 (Matrilysin) (Homo sapiens, UniProt P09237); assay: P218 quenched fluorescence assay, MMP-7; assay type: biochemical
T4 construct: Catalytic domain expressed in E. coli using the pET 14 vector, provided by Dr Steve Shapiro; host or cells: E. coli
T4 sequence (P09237 95-267): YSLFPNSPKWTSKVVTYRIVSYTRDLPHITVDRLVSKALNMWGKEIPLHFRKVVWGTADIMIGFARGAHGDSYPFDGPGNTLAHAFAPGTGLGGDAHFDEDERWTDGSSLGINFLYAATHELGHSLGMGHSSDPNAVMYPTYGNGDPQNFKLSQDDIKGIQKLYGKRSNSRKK
From the text: as §1, §2, §3, §4

MMP-2 (Gelatinase A) = MMP-2 (Gelatinase A) (Homo sapiens, UniProt P08253); assay: biochemical
Chain of MMP-2 (Gelatinase A) (P08253 110-660): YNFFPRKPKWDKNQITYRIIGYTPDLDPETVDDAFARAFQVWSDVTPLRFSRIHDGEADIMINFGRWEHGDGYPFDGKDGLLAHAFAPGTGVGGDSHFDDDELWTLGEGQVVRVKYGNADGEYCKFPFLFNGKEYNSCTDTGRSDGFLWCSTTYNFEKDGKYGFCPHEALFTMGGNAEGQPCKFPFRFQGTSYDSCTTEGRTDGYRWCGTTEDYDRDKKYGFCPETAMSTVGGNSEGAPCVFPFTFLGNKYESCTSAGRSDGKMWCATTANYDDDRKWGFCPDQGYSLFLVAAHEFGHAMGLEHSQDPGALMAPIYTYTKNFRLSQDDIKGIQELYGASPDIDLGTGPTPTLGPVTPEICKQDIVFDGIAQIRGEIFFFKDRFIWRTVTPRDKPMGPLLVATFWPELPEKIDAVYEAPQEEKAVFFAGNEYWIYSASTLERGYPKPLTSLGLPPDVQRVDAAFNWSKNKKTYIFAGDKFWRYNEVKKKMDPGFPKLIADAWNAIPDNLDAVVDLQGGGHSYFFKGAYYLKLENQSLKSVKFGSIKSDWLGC

SMILES | IC50 (Rat MMP-13) | IC50 ([1]; read-out: IC50 vs. MMP-8 (value marked *)) | Ki [2] | inhibition at 0.03 µM (MMP-7 (Matrilysin); at 30 nM, read-out: % inh. of MMP-7) | IC50 (MMP-2 (Gelatinase A)) | Ki ([1]; read-out: Potency Ki vs. MMP-8) | Ki (MMP-7 (Matrilysin); read-out: Potency Ki vs. MMP-7) | Ki (MMP-2 (Gelatinase A))
CCOc1ccc(-c2ccc(C(=O)CC(CCN3C(=O)c4ccccc4C3=O)C(=O)O)cc2)cc1 (single isomer, unassigned; (+)) [Example 2, (+)-2-[2-(1,3-Dioxo-1,3-dihydro-2H-isoindol-2-yl)ethyl]-4-(4′-ethoxy[1,1′-biphenyl]-4-yl)-4-oxobutanoic acid] | 69 nM | 21.6 nM | 0.03 nM | 38% | 3.2 nM | – | – | –
O=C(CC(CCN1C(=O)c2ccccc2C1=O)C(=O)O)c1ccc(-c2ccc(Cl)cc2)cc1 (single isomer, unassigned; (+)) [Example 4, (+)-4-(4′-Chloro[1,1′-biphenyl]4-yl)-2-[2-(1,3-dioxo-1,3-dihydro-2H-isoindol-2-yl)ethyl]-4-oxobutanoic acid] | 296 nM | – | 0.3 nM | – | – | 7.5 nM | > 3000 nM | 0.5 nM
